According to PubChem BioAssay AID248 (DTP/NCI, 2004):
Values joined by “and” are separate entries in the source; they are usually repeats but may differ in a detail not shown here. Equal values may be shown once. Inconclusive results and toxic doses are left out.

System: L1210 leukemia ip in BDF1 mice, survival T/C
Assay: NCI In Vivo Anticancer Drug Screen. Data for tumor model L1210 Leukemia (intraperitoneal) in B6D2F1 (BDF1) mice
Conditions: endpoint: mean survival time, higher = longer survival
In short: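 Each compound was tested against a transplantable tumor grown in mice. The endpoint was survival, with treated animals benchmarked against vehicle controls as a simple ratio.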

[1] = dose: 50.0 mg/kg/injection, schedule: Q04DX003 (ip), vehicle: saline
[2] = dose: 100.0 mg/kg/injection, schedule: Q04DX003 (ip), vehicle: saline
[3] = dose: 100.0 mg/kg/injection, schedule: Q01DX009 (ip), vehicle: Klucel (hydroxypropylcellulose) (HPC)
[4] = dose: 200.0 mg/kg/injection, schedule: Q01DX009 (ip), vehicle: Klucel (hydroxypropylcellulose) (HPC)
[5] = dose: 400.0 mg/kg/injection, schedule: Q01DX009 (ip), vehicle: Klucel (hydroxypropylcellulose) (HPC)
[6] = dose: 12.5 mg/kg/injection, schedule: Q01DX009 (ip), vehicle: saline
[7] = dose: 25.0 mg/kg/injection, schedule: Q01DX009 (ip), vehicle: saline
[8] = dose: 50.0 mg/kg/injection, schedule: Q01DX001 (ip), vehicle: saline
[9] = dose: 50.0 mg/kg/injection, schedule: Q01DX009 (ip), vehicle: saline
[10] = dose: 50.0 mg/kg/injection, schedule: Q04DX003 (ip), vehicle: saline with Tween-80
[11] = dose: 100.0 mg/kg/injection, schedule: Q01DX001 (ip), vehicle: saline
[12] = dose: 200.0 mg/kg/injection, schedule: Q01DX001 (ip), vehicle: saline
[13] = dose: 400.0 mg/kg/injection, schedule: Q01DX001 (ip), vehicle: saline
[14] = dose: 100.0 mg/kg/injection, schedule: Q01DX009 (ip), vehicle: saline
[15] = dose: 12.5 mg/kg/injection, schedule: Q01DX009 (ip), vehicle: water
[16] = dose: 25.0 mg/kg/injection, schedule: Q01DX009 (ip), vehicle: water
[17] = dose: 50.0 mg/kg/injection, schedule: Q01DX009 (ip), vehicle: water
[18] = dose: 100.0 mg/kg/injection, schedule: Q04DX002 (ip), vehicle: Klucel (hydroxypropylcellulose) (HPC)
[19] = dose: 200.0 mg/kg/injection, schedule: Q04DX002 (ip), vehicle: Klucel (hydroxypropylcellulose) (HPC)
[20] = dose: 200.0 mg/kg/injection, schedule: Q01DX001 (ip), vehicle: saline with Tween-80
[21] = dose: 400.0 mg/kg/injection, schedule: Q01DX001 (ip), vehicle: saline with Tween-80

For CCCn1c2c(c(=O)n(CC)c1=O)S(=O)C(OCC)C(=O)N2 (centres undefined), the T/C (dose: 78.0 mg/kg/injection, schedule: Q01DX Z (ip), vehicle: other) was 92 % of control, the T/C (dose: 116.0 mg/kg/injection, schedule: Q01DX Z (ip), vehicle: other) was 97 % of control and 104 % of control and the T/C (dose: 175.0 mg/kg/injection, schedule: Q01DX Z (ip), vehicle: other) was 98 % of control and 87 % of control. For the same compound, the T/C (dose: 262.5 mg/kg/injection, schedule: Q01DX Z (ip), vehicle: other) was 93 % of control and 103 % of control.

In the case of CC1CN(Cc2ccc([N+](=O)[O-])cc2)CC(C)N1N (centres undefined), the T/C (dose: 50.0 mg/kg/injection, schedule: Q01DX005 (ip), vehicle: saline with Tween-80) is reported as 98 % of control and the T/C (dose: 100.0 mg/kg/injection, schedule: Q01DX005 (ip), vehicle: saline with Tween-80) is reported as 103 % of control.

In the case of O=C(Nc1c(Oc2ccc(Cl)cc2)ccc(Cl)c1S(=O)(=O)O)Nc1c(Oc2ccc(Cl)c(Cl)c2)ccc(Cl)c1S(=O)(=O)O, the T/C [1] is reported as 97 % of control, the T/C [2] is reported as 90 % of control and the T/C (dose: 200.0 mg/kg/injection, schedule: Q04DX003 (ip), vehicle: saline) is reported as 95 % of control.

With O=C(O)C1CCC(CC23CC4CC(CC(C4)C2)C3)CC1 (centres undefined) the T/C [3] was 108 % of control, the T/C (dose: 100.0 mg/kg/injection, schedule: Q04DX003 (ip), vehicle: Klucel (hydroxypropylcellulose) (HPC)) was 103 % of control and the T/C [4] was 103 % of control. The T/C (dose: 200.0 mg/kg/injection, schedule: Q04DX003 (ip), vehicle: Klucel (hydroxypropylcellulose) (HPC)) was 105 % of control, the T/C [5] was 109 % of control and the T/C (dose: 400.0 mg/kg/injection, schedule: Q04DX003 (ip), vehicle: Klucel (hydroxypropylcellulose) (HPC)) was 101 % of control.

O=[N+]([O-])/C=C/c1ccc([N+](=O)[O-])cc1Cl was tested, and the T/C [6] was 101 % of control, the T/C [7] was 103 % of control and the T/C [8] was 100 % of control. For the same compound, the T/C [9] was 108 % of control, the T/C [10] was 119 % of control and the T/C [11] was 93 % of control. The T/C [12] was 102 % of control.

Nc1ncc(-c2ccccc2)nn1 (tested in a mixture with another compound) was tested, and the T/C (dose: 100.0 mg/kg/injection, schedule: Q01DX001 (ip), vehicle: Klucel (hydroxypropylcellulose) (HPC)) was 90 % of control, the T/C (dose: 200.0 mg/kg/injection, schedule: Q01DX001 (ip), vehicle: Klucel (hydroxypropylcellulose) (HPC)) was 90 % of control and the T/C (dose: 400.0 mg/kg/injection, schedule: Q01DX001 (ip), vehicle: Klucel (hydroxypropylcellulose) (HPC)) was 116 % of control.

In the case of NC(=S)N/N=C\c1ccccn1, the T/C (dose: 6.25 mg/kg/injection, schedule: Q01DX009 (ip), vehicle: saline with Tween-80) is reported as 123 % of control, the T/C (dose: 6.25 mg/kg/injection, schedule: Q04DX003 (ip), vehicle: saline with Tween-80) is reported as 103 % of control and the T/C (dose: 8.0 mg/kg/injection, schedule: Q01DX009 (ip), vehicle: saline with Tween-80) is reported as 160 % of control. For the same compound, the T/C (dose: 12.0 mg/kg/injection, schedule: Q01DX009 (ip), vehicle: saline with Tween-80) was 165 % of control, the T/C (dose: 12.5 mg/kg/injection, schedule: Q04DX003 (ip), vehicle: saline with Tween-80) was 102 % of control and the T/C (dose: 25.0 mg/kg/injection, schedule: Q04DX003 (ip), vehicle: saline with Tween-80) was 98 % of control.

For NC1=CC(=O)CCC1, the T/C [11] was 103 % of control, the T/C [12] was 100 % of control and the T/C [13] was 97 % of control.

O=c1c(O)cccc2cc(O)c(O)c(O)c12 was tested, and the T/C [6] was 100 % of control, the T/C [7] was 94 % of control and 97 % of control and 107 % of control and the T/C [9] was 95 % of control and 101 % of control (2×). The T/C [14] was 101 % of control and the T/C (dose: 200.0 mg/kg/injection, schedule: Q01DX009 (ip), vehicle: saline) was 94 % of control and 92 % of control.

With CC(=O)NCc1ccc(N)cc1 the T/C [15] was 114 % of control, the T/C [16] was 112 % of control and the T/C [17] was 114 % of control. For the same compound, the T/C (dose: 100.0 mg/kg/injection, schedule: Q01DX009 (ip), vehicle: water) was 120 % of control and the T/C (dose: 200.0 mg/kg/injection, schedule: Q01DX009 (ip), vehicle: water) was 116 % of control.

Cc1cc(C)c(C)[nH]1 was tested, and the T/C (dose: 6.25 mg/kg/injection, schedule: Q01DX009 (ip), vehicle: water) was 104 % of control, the T/C [15] was 101 % of control and the T/C [16] was 114 % of control. The T/C [17] was 105 % of control and 121 % of control.

In the case of CCN(CC)CCOc1ccc(Br)cc1, the T/C (dose: 25.0 mg/kg/injection, schedule: Q04DX003 (ip), vehicle: saline) is reported as 105 % of control, the T/C [9] is reported as 102 % of control and the T/C [1] is reported as 100 % of control. For the same compound, the T/C [14] was 102 % of control and the T/C [2] was 103 % of control and 111 % of control.

With CCCCCCCCCc1ccc(OC(C)OCCOCCOCC)cc1 (centres undefined) the T/C (dose: 100.0 mg/kg/injection, schedule: Q04DX002 (ip), vehicle: saline) was 97 % of control, the T/C (dose: 200.0 mg/kg/injection, schedule: Q04DX002 (ip), vehicle: saline) was 100 % of control and the T/C (dose: 400.0 mg/kg/injection, schedule: Q04DX002 (ip), vehicle: saline) was 105 % of control.

In the case of O=C(Nc1ccc(I)cc1)Nc1cc(C(F)(F)F)ccc1Cl, the T/C [3] is reported as 100 % of control, the T/C [4] is reported as 93 % of control and the T/C [5] is reported as 88 % of control.

In the case of CC(=Nc1ccc(NC(=O)c2ccc(C(=O)Nc3ccc(N=C(C)Nc4ccccc4)cc3)cc2)cc1)Nc1ccccc1, the T/C (dose: 15.0 mg/kg/injection, schedule: Q01DX Z (ip), vehicle: saline) is reported as 93 % of control, the T/C (dose: 30.0 mg/kg/injection, schedule: Q01DX Z (ip), vehicle: saline) is reported as 92 % of control and the T/C (dose: 60.0 mg/kg/injection, schedule: Q01DX Z (ip), vehicle: saline) is reported as 97 % of control. For the same compound, the T/C (dose: 120.0 mg/kg/injection, schedule: Q01DX Z (ip), vehicle: saline) was 93 % of control.

For CN(C)C(=S)SCc1c(O)c(C(C)(C)C)cc2cc(C(C)(C)C)ccc12, the T/C [18] was 105 % of control, the T/C [19] was 110 % of control and the T/C (dose: 400.0 mg/kg/injection, schedule: Q04DX002 (ip), vehicle: Klucel (hydroxypropylcellulose) (HPC)) was 102 % of control.

In the case of CCCCCCCCCCC(CCCCCCC)(CCCCCCCC)CCCCCCCCC (centres undefined), the T/C (dose: 133.0 mg/kg/injection, schedule: Q01DX001 (ip), vehicle: saline with Tween-80) is reported as 102 % of control, the T/C [20] is reported as 107 % of control and the T/C (dose: 300.0 mg/kg/injection, schedule: Q01DX001 (ip), vehicle: saline with Tween-80) is reported as 102 % of control. The T/C [21] was 101 % of control.

With O=C1C=Cc2ccccc2/C1=C/c1nc(-c2ccc(Cl)cc2)oc1O the T/C [18] was 95 % of control and the T/C [19] was 91 % of control.

In the case of O=C1c2ccccc2C(=O)N1OCCCCON1C(=O)c2ccccc2C1=O, the T/C [8] is reported as 100 % of control, the T/C [11] is reported as 106 % of control and the T/C [12] is reported as 106 % of control. For the same compound, the T/C [13] was 102 % of control.

With Cc1ccc(Cl)cc1NC(=O)Nc1cccc2ccc(O)cc12 the T/C [10] was 102 % of control, the T/C (dose: 100.0 mg/kg/injection, schedule: Q01DX001 (ip), vehicle: saline with Tween-80) was 95 % of control and the T/C (dose: 100.0 mg/kg/injection, schedule: Q01DX009 (ip), vehicle: saline with Tween-80) was 95 % of control and 101 % of control. The T/C (dose: 100.0 mg/kg/injection, schedule: Q04DX002 (ip), vehicle: saline with Tween-80) was 102 % of control and 90 % of control, the T/C (dose: 100.0 mg/kg/injection, schedule: Q04DX003 (ip), vehicle: saline with Tween-80) was 96 % of control and the T/C [20] was 97 % of control. For the same compound, the T/C (dose: 200.0 mg/kg/injection, schedule: Q01DX009 (ip), vehicle: saline with Tween-80) was 88 % of control and 92 % of control, the T/C (dose: 200.0 mg/kg/injection, schedule: Q04DX002 (ip), vehicle: saline with Tween-80) was 95 % of control and 91 % of control and the T/C (dose: 200.0 mg/kg/injection, schedule: Q04DX003 (ip), vehicle: saline with Tween-80) was 91 % of control. For the same compound, the T/C [21] was 101 % of control, the T/C (dose: 400.0 mg/kg/injection, schedule: Q01DX009 (ip), vehicle: saline with Tween-80) was 95 % of control and 103 % of control and the T/C (dose: 400.0 mg/kg/injection, schedule: Q04DX002 (ip), vehicle: saline with Tween-80) was 87 % of control and 90 % of control. For the same compound, the T/C (dose: 400.0 mg/kg/injection, schedule: Q04DX003 (ip), vehicle: saline with Tween-80) was 96 % of control.
